Measured values reported in patent US20060247129A1, “Surfactant compounds and agrochemical compositions” (Imperial Chemical Industries PLC, priority 2003, published 2006).

Columns and labels:
Test in all cases: glasshouse herbicide spray test, % weed control, adjuvant with glyphosate potassium salt
Format in all cases: in vivo
Conditions in all cases: 19 days after treatment
[1] = test system: Abutilon Theophrasti
Method: (§1) The compound of Synthesis Example SE1 was tested as an adjuvant with glyphosate potassium salt, mixing the glyphosate and adjuvant in a tank mix using concentrations of glyphosate from 0.125 to 2 g.l-1 and of adjuvant from 0.003125 to 0.2% v/v. The tank mixes were sprayed as a herbicide on a variety of test species at an application rate of 200 l.ha^−1 to give application rates of glyphosate of from 25 to 400 g (active ingredient).ha^−1. The plants were grown in a warm glasshouse and assessed 19 days after treatment for % control—the mean of three replicates for visually assessed % weed control, relative to unsprayed plants of each species in the same test.
(§2) Example AE1 was repeated but using the compound made in Synthesis Example SE4 as the adjuvant.

[2] = test system: Echinochloa crus-galli
Method: as §1, §2

[3] = test system: Portulaca oleracea
Method: as §1, §2

[4] = test system: Sida Spinosa
Method: as §1, §2

[5] = test system: Solanum nigra
Method: as §1, §2

[6] = test system: Sorghum halepense
Method: as §1, §2

[7] = glyphosate 50 g ai/ha, adjuvant 0.003125 % v/v
[8] = glyphosate 50 g ai/ha, adjuvant 0.0125 % v/v
[9] = glyphosate 50 g ai/ha, adjuvant 0.05 % v/v
[10] = glyphosate 50 g ai/ha, adjuvant 0.2 % v/v
[11] = glyphosate 100 g ai/ha, adjuvant 0.003125 % v/v
[12] = glyphosate 100 g ai/ha, adjuvant 0.0125 % v/v
[13] = glyphosate 100 g ai/ha, adjuvant 0.05 % v/v
[14] = glyphosate 100 g ai/ha, adjuvant 0.2 % v/v
[15] = glyphosate 200 g ai/ha, adjuvant 0.003125 % v/v
[16] = glyphosate 200 g ai/ha, adjuvant 0.0125 % v/v
[17] = glyphosate 200 g ai/ha, adjuvant 0.05 % v/v
[18] = glyphosate 200 g ai/ha, adjuvant 0.2 % v/v
[19] = glyphosate 400 g ai/ha, adjuvant 0.003125 % v/v
[20] = glyphosate 400 g ai/ha, adjuvant 0.0125 % v/v
[21] = glyphosate 400 g ai/ha, adjuvant 0.05 % v/v
[22] = glyphosate 400 g ai/ha, adjuvant 0.2 % v/v
[23] = glyphosate 25 g ai/ha, adjuvant 0.003125 % v/v
[24] = glyphosate 25 g ai/ha, adjuvant 0.0125 % v/v
[25] = glyphosate 25 g ai/ha, adjuvant 0.05 % v/v
[26] = glyphosate 25 g ai/ha, adjuvant 0.2 % v/v

Random 8-ethoxylate-2-propoxylate of N-methyl glucamine C13/C15 glycidyl ether [SE4]
% control ABUTH [1, 7]: 40% | % control ABUTH [1, 8]: 48% | % control ABUTH [1, 9]: 25% | % control ABUTH [1, 10]: 43% | % control ABUTH [1, 11]: 42% | % control ABUTH [1, 12]: 33% | % control ABUTH [1, 13]: 50% | % control ABUTH [1, 14]: 52% | % control ABUTH [1, 15]: 42% | % control ABUTH [1, 16]: 65% | % control ABUTH [1, 17]: 58% | % control ABUTH [1, 18]: 68% | % control ABUTH [1, 19]: 78% | % control ABUTH [1, 20]: 80% | % control ABUTH [1, 21]: 81% | % control ABUTH [1, 22]: 85% | % control ECHCG [2, 23]: 12% | % control ECHCG [2, 24]: 15% | % control ECHCG [2, 25]: 51% | % control ECHCG [2, 26]: 53% | % control ECHCG [2, 7]: 32% | % control ECHCG [2, 8]: 35% | % control ECHCG [2, 9]: 68% | % control ECHCG [2, 10]: 91% | % control ECHCG [2, 11]: 78% | % control ECHCG [2, 12]: 83% | % control ECHCG [2, 13]: 90% | % control ECHCG [2, 14]: 98% | % control ECHCG [2, 15]: 90% | % control ECHCG [2, 16]: 89% | % control ECHCG [2, 17]: 95% | % control ECHCG [2, 18]: 98% | % control POROC [3, 7]: 7% | % control POROC [3, 8]: 2% | % control POROC [3, 9]: 13% | % control POROC [3, 10]: 35% | % control POROC [3, 11]: 8% | % control POROC [3, 12]: 18% | % control POROC [3, 13]: 43% | % control POROC [3, 14]: 46% | % control POROC [3, 15]: 28% | % control POROC [3, 16]: 36% | % control POROC [3, 17]: 45% | % control POROC [3, 18]: 50% | % control POROC [3, 19]: 42% | % control POROC [3, 20]: 47% | % control POROC [3, 21]: 63% | % control POROC [3, 22]: 81% | % control SIDSP [4, 7]: 30% | % control SIDSP [4, 8]: 38% | % control SIDSP [4, 9]: 38% | % control SIDSP [4, 10]: 38% | % control SIDSP [4, 11]: 37% | % control SIDSP [4, 12]: 38% | % control SIDSP [4, 13]: 52% | % control SIDSP [4, 14]: 62% | % control SIDSP [4, 15]: 50% | % control SIDSP [4, 16]: 63% | % control SIDSP [4, 17]: 77% | % control SIDSP [4, 18]: 76% | % control SIDSP [4, 19]: 76% | % control SIDSP [4, 20]: 78% | % control SIDSP [4, 21]: 78% | % control SIDSP [4, 22]: 77% | % control SOLNI [5, 7]: 37% | % control SOLNI [5, 8]: 32% | % control SOLNI [5, 9]: 63% | % control SOLNI [5, 10]: 73% | % control SOLNI [5, 11]: 65% | % control SOLNI [5, 12]: 68% | % control SOLNI [5, 13]: 71% | % control SOLNI [5, 14]: 78% | % control SOLNI [5, 15]: 78% | % control SOLNI [5, 16]: 73% | % control SOLNI [5, 17]: 80% | % control SOLNI [5, 18]: 82% | % control SOLNI [5, 19]: 83% | % control SOLNI [5, 20]: 83% | % control SOLNI [5, 21]: 84% | % control SOLNI [5, 22]: 85% | % control SORHA [6, 23]: 8% | % control SORHA [6, 24]: 8% | % control SORHA [6, 25]: 32% | % control SORHA [6, 26]: 84% | % control SORHA [6, 7]: 23% | % control SORHA [6, 8]: 20% | % control SORHA [6, 9]: 68% | % control SORHA [6, 10]: 89% | % control SORHA [6, 11]: 78% | % control SORHA [6, 12]: 70% | % control SORHA [6, 13]: 90% | % control SORHA [6, 14]: 95% | % control SORHA [6, 15]: 87% | % control SORHA [6, 16]: 89% | % control SORHA [6, 17]: 96% | % control SORHA [6, 18]: 95%

Random 8-ethoxylate-2-propoxylate of N-methyl glucamine C8/C10 glycidyl ether [SE1]
% control ABUTH [1, 7]: 33% | % control ABUTH [1, 8]: 33% | % control ABUTH [1, 9]: 38% | % control ABUTH [1, 10]: 27% | % control ABUTH [1, 11]: 53% | % control ABUTH [1, 12]: 35% | % control ABUTH [1, 13]: 43% | % control ABUTH [1, 14]: 42% | % control ABUTH [1, 15]: 62% | % control ABUTH [1, 16]: 66% | % control ABUTH [1, 17]: 66% | % control ABUTH [1, 18]: 70% | % control ABUTH [1, 19]: 81% | % control ABUTH [1, 20]: 82% | % control ABUTH [1, 21]: 79% | % control ABUTH [1, 22]: 83% | % control ECHCG [2, 23]: 15% | % control ECHCG [2, 24]: 10% | % control ECHCG [2, 25]: 22% | % control ECHCG [2, 26]: 37% | % control ECHCG [2, 7]: 48% | % control ECHCG [2, 8]: 47% | % control ECHCG [2, 9]: 58% | % control ECHCG [2, 10]: 70% | % control ECHCG [2, 11]: 85% | % control ECHCG [2, 12]: 82% | % control ECHCG [2, 13]: 84% | % control ECHCG [2, 14]: 89% | % control ECHCG [2, 15]: 92% | % control ECHCG [2, 16]: 90% | % control ECHCG [2, 17]: 93% | % control ECHCG [2, 18]: 97% | % control POROC [3, 7]: 7% | % control POROC [3, 8]: 4% | % control POROC [3, 9]: 12% | % control POROC [3, 10]: 30% | % control POROC [3, 11]: 8% | % control POROC [3, 12]: 9% | % control POROC [3, 13]: 18% | % control POROC [3, 14]: 37% | % control POROC [3, 15]: 23% | % control POROC [3, 16]: 20% | % control POROC [3, 17]: 45% | % control POROC [3, 18]: 64% | % control POROC [3, 19]: 42% | % control POROC [3, 20]: 43% | % control POROC [3, 21]: 60% | % control POROC [3, 22]: 73% | % control SIDSP [4, 7]: 30% | % control SIDSP [4, 8]: 38% | % control SIDSP [4, 9]: 42% | % control SIDSP [4, 10]: 31% | % control SIDSP [4, 11]: 33% | % control SIDSP [4, 12]: 48% | % control SIDSP [4, 13]: 48% | % control SIDSP [4, 14]: 55% | % control SIDSP [4, 15]: 63% | % control SIDSP [4, 16]: 48% | % control SIDSP [4, 17]: 72% | % control SIDSP [4, 18]: 79% | % control SIDSP [4, 19]: 79% | % control SIDSP [4, 20]: 73% | % control SIDSP [4, 21]: 83% | % control SIDSP [4, 22]: 78% | % control SOLNI [5, 7]: 37% | % control SOLNI [5, 8]: 35% | % control SOLNI [5, 9]: 48% | % control SOLNI [5, 10]: 50% | % control SOLNI [5, 11]: 62% | % control SOLNI [5, 12]: 68% | % control SOLNI [5, 13]: 68% | % control SOLNI [5, 14]: 77% | % control SOLNI [5, 15]: 80% | % control SOLNI [5, 16]: 81% | % control SOLNI [5, 17]: 81% | % control SOLNI [5, 18]: 79% | % control SOLNI [5, 19]: 80% | % control SOLNI [5, 20]: 81% | % control SOLNI [5, 21]: 79% | % control SOLNI [5, 22]: 82% | % control SORHA [6, 23]: 17% | % control SORHA [6, 24]: 7% | % control SORHA [6, 25]: 8% | % control SORHA [6, 26]: 45% | % control SORHA [6, 7]: 40% | % control SORHA [6, 8]: 22% | % control SORHA [6, 9]: 20% | % control SORHA [6, 10]: 84% | % control SORHA [6, 11]: 90% | % control SORHA [6, 12]: 81% | % control SORHA [6, 13]: 72% | % control SORHA [6, 14]: 92% | % control SORHA [6, 15]: 93% | % control SORHA [6, 16]: 91% | % control SORHA [6, 17]: 91% | % control SORHA [6, 18]: 96%
